# Patent US20110020462A1, “NEW USE OF HISTONE DEACETYLASE INHIBITORS IN CHANGING MRJP3 PROTEIN IN ROYAL JELLY” (NATUREWISE BIOTECH & MEDICALS CORPORATION, priority 2009, published 2011)
# Columns and labels:
# larvae of the queen bee = experiment: Growth (weight) of larvae of the queen bee fed royal jelly secreted by young worker bees fed the test substance in sugar water; format: in vivo, Apis mellifera
# MRJP3 = experiment: Ratio of 68 to 64 kDa MRJP3 protein in royal jelly (SDS-PAGE); format: in vivo, Apis mellifera
# Description: Beehives with the similar expression level of MRJP3 protein were selected for use, and two beehives were tested in each control or experimental group. On the first day, the honey originally contained in the beehives was removed by shaking, and the bees (Apis mellifera) were fed sugar water twice (normal sugar water for the control group and special sugar water for the experimental group) for two days. The special sugar water was a 10-fold dilution of the formulated sugar powder in water. On the third day, 1.5-day old larvae (which were the offspring of the same queen) were inserted into the beehives, and the bees were fed once (normal sugar water for the control group and special sugar water for the experimental group). After 24, 48, and 72 hrs, 20 larvae and the royal jelly in the cells of said 20 larvae were collected for qualitative, quantitative, and proteomic analyses.
# For qualitative analysis, royal jelly and sterilized water at a weight ratio of 1:10 was mixed for extraction. A particular amount of the proteins in the aqueous layer were removed for determination of protein concentration by Bradford dye-binding method (Bio-Rad protein assay, Bio-Rad Laboratories, Inc.). The absorption at 595 nm of the protein samples was determined by Elisa Reader (Bio-TEK). […]
smiles,measurement,setting,value
"CC(C)=CCC/C(C)=C/Cc1c([C@@H]2CC(=O)c3c(cc(O)c(CC=C(C)C)c3O)O2)ccc(O)c1O [Propolin G, propolin G]",larva weight increase,"larvae of the queen bee; Example 5, 300 mg/kg, period of 24 to 48 hours, control around 1.60 fold",around 5.05 fold
same,larva weight increase,"larvae of the queen bee; Example 5, 300 mg/kg, period of 48 to 72 hours, control around 1.22 fold",around 5.79 fold
same,Average weight of each larva,"larvae of the queen bee; Table 6, 150 mg/kg, 24 h, control 5.23",5.73 mg
same,Average weight of each larva,"larvae of the queen bee; Table 6, 150 mg/kg, 48 h, control 13.57",54.2 mg
same,Average weight of each larva,"larvae of the queen bee; Table 6, 150 mg/kg, 72 h, control 30.07",156.63 mg
same,Average weight of each larva,"larvae of the queen bee; Table 6, 300 mg/kg, 24 h, control 5.23",3.93 mg
same,Average weight of each larva,"larvae of the queen bee; Table 6, 300 mg/kg, 48 h, control 13.57",23.80 mg
same,Average weight of each larva,"larvae of the queen bee; Table 6, 300 mg/kg, 72 h, control 30.07",161.73 mg
same,Average weight of each larva,"larvae of the queen bee; Table 6, 600 mg/kg, 24 h, control 5.23",2.70 mg
same,Average weight of each larva,"larvae of the queen bee; Table 6, 600 mg/kg, 48 h, control 13.57",13.67 mg
same,Average weight of each larva,"larvae of the queen bee; Table 6, 600 mg/kg, 72 h, control 30.07",85.67 mg
same,Average weight of each larva,"larvae of the queen bee; Table 8, positive control 150 mg/kg, 24 h, control 1.9",3.6 mg
same,Average weight of each larva,"larvae of the queen bee; Table 8, positive control 150 mg/kg, 48 h, control 13.3",41.2 mg
same,Average weight of each larva,"larvae of the queen bee; Table 8, positive control 150 mg/kg, 72 h, control 38.4",178.6 mg
"O=C(CCCCCCC(=O)Nc1ccccc1)NO [SAHA, suberoylanilide hydroxamide acid, reference compound]",ratio of the protein components of the royal jelly secreted by young worker bees,MRJP3; 5 to 15 mg/kg,significantly changed
same,Average weight of each larva,"larvae of the queen bee; Table 8, 5 mg/kg, 24 h, control 1.9",4.0 mg
same,Average weight of each larva,"larvae of the queen bee; Table 8, 5 mg/kg, 48 h, control 13.3",28.2 mg
same,Average weight of each larva,"larvae of the queen bee; Table 8, 5 mg/kg, 72 h, control 38.4",149.3 mg
same,Average weight of each larva,"larvae of the queen bee; Table 8, 15 mg/kg, 24 h, control 1.9",7.3 mg
same,Average weight of each larva,"larvae of the queen bee; Table 8, 15 mg/kg, 48 h, control 13.3",41.0 mg
same,Average weight of each larva,"larvae of the queen bee; Table 8, 15 mg/kg, 72 h, control 38.4",149.2 mg
"CC(C)=CCC/C(C)=C/Cc1c(O)cc2c(c1O)C(=O)C[C@@H](c1ccc(O)c(O)c1)O2 [Propolin C, propolin C]",protein components of the royal jelly secreted by young worker bees,MRJP3; 50 to 100 mg/kg,significantly changed
same,larva weight increase,"larvae of the queen bee; Example 4, 100 mg/kg, period of 48 to 72 hours, control around 3.58 fold",around 6.30 fold
same,Average weight of each larva,"larvae of the queen bee; Table 5, 50 mg/kg, 24 h, control 3.52",2.40 mg
same,Average weight of each larva,"larvae of the queen bee; Table 5, 50 mg/kg, 48 h, control 13.45",15.2 mg
same,Average weight of each larva,"larvae of the queen bee; Table 5, 50 mg/kg, 72 h, control 61.60",70.17 mg
same,Average weight of each larva,"larvae of the queen bee; Table 5, 100 mg/kg, 24 h, control 3.52",2.38 mg
same,Average weight of each larva,"larvae of the queen bee; Table 5, 100 mg/kg, 48 h, control 13.45",13.48 mg
same,Average weight of each larva,"larvae of the queen bee; Table 5, 100 mg/kg, 72 h, control 61.60",98.48 mg
